This is an account of results in patent US5863913A, “Aromatic compound and pharmaceutical composition” (Kureha Chemical Industry Co., Ltd., priority 1996, dated 1999).

Series [1] deals with ICR female mice. Description: Acute toxicity, single oral dose in mice. Conditions: mouse, in vivo. As for the experimental part:
The aromatic compounds of the formula (I) according to the present invention were orally administered to mice at the dose of 500 mg/kg, but no fatalities were observed over a period of one week.
Five-week-old ICR female mice (5 mice per group) were bred for acclimation for a week. Then, the compounds of the present invention were dissolved in water, and orally administered to the mice in a single dosage (500 mg/kg).

Series [2] deals with T1, angiotensin II receptor subtype 1 (AT1) (Oryctolagus cuniculus, UniProt P34976).
T1 construct: receptor : from adrenal glands in rabbits; from tissue; host or cells: rabbit adrenal glands
T1 sequence (P34976 1-359): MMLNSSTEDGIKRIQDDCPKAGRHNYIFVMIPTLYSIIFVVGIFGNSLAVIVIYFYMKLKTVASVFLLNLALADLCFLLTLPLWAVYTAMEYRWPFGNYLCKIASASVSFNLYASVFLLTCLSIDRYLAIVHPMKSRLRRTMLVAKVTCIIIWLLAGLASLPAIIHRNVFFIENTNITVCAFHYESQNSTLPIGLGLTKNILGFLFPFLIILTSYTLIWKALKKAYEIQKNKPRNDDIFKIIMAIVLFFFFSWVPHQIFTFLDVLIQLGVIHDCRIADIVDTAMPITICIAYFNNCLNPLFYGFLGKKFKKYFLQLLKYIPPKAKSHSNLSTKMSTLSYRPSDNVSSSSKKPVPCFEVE
Kind of series: Binding to receptors: angiotensin II receptor subtype 1 (AT1). More on the design: species or system rabbits (adrenal glands). Conditions: rabbit adrenal glands, tracer 3H-angiotensin II. The procedure: (§1) In this Example, the affinity to the angiotensin II receptor subtype 1 or subtype 2 was evaluated by a binding assay in accordance with the method described in Biochem. Pharmacol., 33, 4057-4062 (1984).
(§2) Specifically, the measurement of the total binding in the presence of each drug was performed as follows:
(§3) A mixture (final volume=0.25 ml) of a drug in a given concentration (the drug was dissolved in DMSO, and diluted to a double volume with a buffer attached to a drug discovery system to prepare a sample for the assay; 0.025 ml), a tracer (0.025 ml), and receptors (0.2 ml) was incubated [in the case of the angiotensin II receptor subtype 1 (AT1), at room temperature for 3 hours, and in the case of the subtype 2 (AT2), at 37° C. for 1 hour]. Then, the reaction mixture was filtered with suction (GF/C filter was used in AT1, and GF/B filter was used in AT2). The filter papers after filtration with suction (the tracer bound to the receptors) were counted by a γ-well counter (ARC-500, Aloka). The non-specific bindings were measured by repeating the above method, except that a large excess amount of a displacer was added. The specific binding of the drug in the given concentration was calculated by subtracting the non-specific binding from the total binding, respectively.
receptor : from adrenal glands in rabbits
tracer : ^3 Hangiotensin II

Series [3] concerns the target T2, angiotensin II receptor subtype 2 (AT2) (Bos taurus, UniProt G5E6F7).
T2 construct: receptor : from cerebellar cortex in bovine; from tissue; host or cells: bovine cerebellar cortex
T2 sequence (G5E6F7 1-362): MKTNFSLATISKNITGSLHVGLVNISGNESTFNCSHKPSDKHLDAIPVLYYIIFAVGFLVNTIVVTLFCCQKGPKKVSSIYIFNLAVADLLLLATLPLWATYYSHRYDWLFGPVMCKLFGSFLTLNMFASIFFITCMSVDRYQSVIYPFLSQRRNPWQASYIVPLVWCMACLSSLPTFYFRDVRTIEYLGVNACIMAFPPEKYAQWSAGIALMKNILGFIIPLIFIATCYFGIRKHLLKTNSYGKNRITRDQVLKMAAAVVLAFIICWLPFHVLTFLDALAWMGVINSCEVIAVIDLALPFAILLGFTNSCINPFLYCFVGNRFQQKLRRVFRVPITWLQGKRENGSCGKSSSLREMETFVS
Description: Binding to receptors: angiotensin II receptor subtype 2 (AT2). To be noted: bovine cerebellar cortex, tracer 125I-Tyr4-angiotensin II. As for the experimental part:
as §1, §2, §3
In AT1 and AT2, the percentages found to inhibit the bindings of radioactive ligands (tracer) to receptors by the drugs to be tested (IC50 value of concentration to show 50% inhibition, or binding inhibition % in 100 μM) were measured, using the drugs to be tested and control drugs in the given concentration.
receptor : from cerebellar cortex in bovine
tracer : ^125 ITyr^4angiotensin II
control drug : angiotensin II (human)
(displacer) : angiotensin II (human)

The test system of series [4] is kidney disease model rats. Kind of series: Action to lower blood pressure in kidney disease model rats (tail cuff). Format: in vivo, Sprague-Dawley female rats. Conditions: for Blood Pressure: systolic, average of 8 rats, 20 mg/kg with drinking water, two days after administration, control 210. The procedure:
(§4) The compounds of the present invention and the reference substance were administered with drinking water to kidney disease model rats, and the action of lowering the blood pressure was observed. The kidney disease model rats were prepared by a ligature of branches of renal artery in accordance with a conventional method. Namely, the left hilum renalis of Sprague-Dawley female rats was exposed under anesthesia, and one of four secondary branches of the renal artery was left unligated, while the remaining three branches were ligated, respectively. After a week, the hilum renalis (artery, vein, and ureter) of the right kidney were further ligated to thereby prepare rats whose renal function was lowered to approximately 1/8 of the normal function. Each group consisted of eight rats. The drugs to be tested (20 mg/kg) were administered to each administering group, and only water was administered to a control group. Two days after the administration, the systolic blood pressure was measured by the tail cuff method using a blood pressure measuring apparatus (UR5000; Ueda).

Series [5] has as its system kidney disease model rats. Kind of series: Renal function indicatory value in kidney disease model rats. Conditions: 20 mg/kg/day with drinking water, six weeks; for Creatinine clearance: 24 hours urine, control 0.22; for Creatinine / Blood urea nitrogen: serum; for Creatinine: control 2.0; for Blood urea nitrogen: control 100. Type of series: in vivo, Sprague-Dawley female rats. The procedure:
as §4, with “The” for “The compounds of the present invention and the reference substance were administered with drinking water to kidney disease model rats, and the action of lowering the blood pressure was observed. The”
The rats in each group were allowed to freely take up food. […] To the rats in the control group, only water was administered every day. After six weeks, 0.2 ml of blood was collected from the carotid artery of the rats under anesthesia, and centrifuged to obtain serum. Using 25 μl of the serum, the serum creatinine (Scr) was measured by a creatinine analytical instrument (Beckman). Using 10 μl of the serum, the blood urea nitrogen (BUN) was measured by a BUN analytical instrument (Beckman). The creatinine clearance was evaluated as follows:
After the serum creatinine measurement, rats were placed in urinary metabolic cages for 24 hours to collect urine. A urinary creatine concentration (Ucr) was measured by a creatinine analytical instrument, and a total volume of urination (Uvol) was also measured. The creatinine clearance (CCr) was calculated by the following formula: [formula]

Series [6] concerns kidney disease model rats. Kind of series: Survival time of kidney diseased animals. Format: in vivo, Sprague-Dawley female rats. Conditions: 20 mg/kg/day with drinking water, observation period eight weeks (upper limit); control 5.0. The procedure:
as §4
The kidney disease model rats were prepared as in Example 54. Twenty-two groups (8 rats per group) were prepared in a manner such that there was no major difference between the groups in the serum creatinine value and the blood urea nitrogen value indicating renal function. The rats in each group were allowed to freely take up food. […] To the rats in the control group, only water was administered every day. If kidney diseases are aggravated, the rat will die of uremia. Thus, the survival time was observed as a comprehensive indication of the improvement of the effect on the kidney diseases. The observation period was eight weeks. Thus if all rats survived, the average survival time is eight weeks, and is an upper limit.

One may read the inhibition as the change of the read-out against control, counted positive when it falls. Low values mean a response near the control, high ones a response far below the control. `CCCCC(=O)N(Cc1ccc(C(=O)OCC(N)C(=O)OCC)cc1)c1cc(C(=O)N2CCOCC2)ccc1N(C)C` (stereo not drawn) [Compound No. 4, 3-N-[[[[4-(2'-amino-2'-ethoxycarbonyl)ethoxycarbonyl]phenyl]methyl]valeramido]-4-dimethyl aminobenzoic acid morpholide]: in series [1], the “Number of deaths/number of survivals” value is 0/5. Besides, the inhibition at 100 µM in series [2] is 11%. The same compound came in with an inhibition at 100 µM in series [3] of 0%. In series [4], the “Blood Pressure” value came out at 204 mmHg. In series [5], this compound gave a Creatinine clearance of 0.37 mL/min, a Creatinine of 1.4 mg/dL and a Blood urea nitrogen of 72 mg/dL. The compound also gave an Average survival time in series [6] of 6.9 weeks.

With `CCCCC(=O)N(Cc1ccc(C(=O)OC2CNC(C(=O)OCC)C2)cc1)c1cc(C(=O)N2CCOCC2)ccc1N(C)C` (stereo not drawn) [Compound No. 5, 4-dimethylamino-3-N-[[[[4-(2'-ethoxycarbonylpyrrolidin-4'-yloxy)carbonyl]phenyl]methyl]valeramido]benzoic acid morpholide], the “Number of deaths/number of survivals” value in series [1] was 0/5. This compound displayed an inhibition at 100 µM in series [2] of 11%. The same compound returned an inhibition at 100 µM in series [3] of 0%. In series [4], the “Blood Pressure” value was determined as 200 mmHg. For the same compound, in series [5], the Creatinine clearance worked out at 0.30 mL/min, the Creatinine was found to be 1.6 mg/dL and the Blood urea nitrogen was found to be 82 mg/dL. In addition, the Average survival time in series [6] was 6.9 weeks.

Regarding `CCCCC(=O)N(Cc1ccc(C(=O)O)cc1)c1cc(C(=O)N2CCN(C)CC2)ccc1N(C)C` [Compound No. 10, 3-[[(4-carboxyohenyl)methyl]valeramido]-4-dimethylaminobenzoic acid 4'-methylpiperazide], the “Number of deaths/number of survivals” value in series [1] is given as 0/5. For the same compound, the inhibition at 100 µM in series [2] worked out at 13%. Further, in series [3], the inhibition at 100 µM amounted to 0%. For the same compound, the “Blood Pressure” value in series [4] is recorded as 206 mmHg. In series [5], this compound returned a Creatinine clearance of 0.32 mL/min, a Creatinine of 1.6 mg/dL and a Blood urea nitrogen of 81 mg/dL. This compound showed an Average survival time in series [6] of 6.9 weeks.

`CCCCCCCC(=O)N(Cc1ccc(C(=O)O)cc1)c1cc(C(=O)N2CCN(C)CC2)ccc1N(C)C` [Compound No. 14, 3-[[(4-carboxyphenyl)methyl]n-octanamido]-4-dimethylaminobenzoic acid 4'-methylpiperazide]: in series [1], the “Number of deaths/number of survivals” value is 0/5. Further, at 100 µM the inhibition in series [2] was 0%. The same compound showed an inhibition at 100 µM in series [3] of 0%. Also, in series [4], the “Blood Pressure” value amounted to 205 mmHg. In series [5], this compound gave a Creatinine clearance of 0.27 mL/min, a Creatinine of 1.7 mg/dL and a Blood urea nitrogen of 86 mg/dL. Besides, in series [6], the Average survival time is reported as 6.3 weeks.

For `CCCCC(=O)N(Cc1ccc(C(=O)OCC)cc1)c1cc(C(=O)N2CCN(C)CC2)ccc1C(C)C` [Compound No. 16, 3-[[(4-ethoxycarbonylphenyl)methyl]valeramido]-4-i-propylbenzoic acid 4'-methylpiperazide], the “Number of deaths/number of survivals” value in series [1] is 0/5. The inhibition at 100 µM in series [2] amounted to 0%. This compound also came in with an inhibition at 100 µM in series [3] of 0%. In series [4], the “Blood Pressure” value is 202 mmHg. In addition, in series [5], the Creatinine clearance was 0.33 mL/min, the Creatinine is 1.5 mg/dL and the Blood urea nitrogen was 78 mg/dL. Also, the Average survival time in series [6] is recorded as 6.9 weeks.

`CCCCC(=O)N(Cc1ccc(C(=O)O)cc1)c1cc(C(=O)N(CC)CCN(CC)CC)ccc1C(C)C` [Compound No. 17]: in series [1], the “Number of deaths/number of survivals” value is recorded as 0/5. This compound also registered an inhibition at 100 µM in series [2] of 4%. The compound further registered an inhibition at 100 µM in series [3] of 23%. Further, in series [4], the “Blood Pressure” value was 201 mmHg. In series [5], this compound yielded a Creatinine clearance of 0.33 mL/min, a Creatinine of 1.5 mg/dL and a Blood urea nitrogen of 78 mg/dL. In series [6], this compound yielded an Average survival time of 6.9 weeks.

As for `CCCCc1nc(Cl)c(CO)n1Cc1ccc(-c2ccccc2-c2nn[nH]n2)cc1` [DuP753, reference compound], the “action of lowering the blood pressure” value in series [4] (result in words, in comparison with the control group) was “clearly exhibited the action of lowering the blood pressure”. Besides, the “Blood Pressure” value in series [4] is recorded as 130 mmHg. For the same compound, in series [5], the Creatinine clearance turned out to be 0.32 mL/min, the Creatinine stood at 1.6 mg/dL and the Blood urea nitrogen is 80 mg/dL. This compound also displayed an Average survival time in series [6] of 6.9 weeks.
